Target: Alpha-1 adrenergic receptor (Sus scrofa)
Test: Displacement of [3H]-prazosin from alpha1-adrenergic receptor in pig cerebral cortex

| Ki [nM] | Structure (SMILES) |
| --- | --- |
| 110 | COc1ccccc1N1CCN(Cc2cn(CCCCCCF)nn2)CC1 |
| 490 | COc1ccccc1N1CCN(Cc2cn(CCOCCOCCF)nn2)CC1 |

Source: BindingDB's records for doi:10.1016/j.bmcl.2013.09.026 (Friedrich-Alexander University, 2013)
